Test: log P by HPLC on reversed-phase column (C18), EEC Directive 79/831 Annex V.A8
Type: physicochemical
Settings: C18, 40° C.; for log p HCO2H: aqueous formic acid / acetonitrile; for log p H3PO4: 0.1% aqueous phosphoric acid / acetonitrile
Protocol: The log P data were determined in accordance with the EEC Directive 79/831 Annex V.A8 by HPLC (High Performance Liquid Chromatography) on a reversed-phase column (C18) using the following methods: […]
Calibration was carried out with the help of unbranched alkan-2-ones (consisting of 3 to 13 or 16 carbon atoms) with known logP values (determination of the logP values via the retention times by means of linear interpolation between two subsequent alkanones).

| Structure (SMILES) | log p acidic | log p neutral | log p HCO2H | log p H3PO4 |
| --- | --- | --- | --- | --- |
| Cc1cc(Oc2cc(F)cc(Br)c2)c(C)cc1N=CN(C)C [compound 1] | 2.17 | 5.11 |  |  |
| CCN(C)C=Nc1cc(C)c(Oc2ccc(C#N)c(C(F)(F)F)c2)cc1C [compound 226] | 1.68 |  |  |  |
| CCN(C)C=Nc1cc(C)c(CCc2ccc(C(F)(F)F)cc2)cc1C [compound 250] |  |  | 2.45 |  |
| CCN(C)C=Nc1cc(C)c(Oc2cccc(Oc3ccccc3)c2)cc1C [compound 290] | 2.51 |  |  |  |
| Cc1cc(Oc2cc(F)cc(Br)c2)c(C)cc1N=CN(C)C(C)C [compound 321] | 2.37 | 6.21 |  |  |
| Cc1cc(Oc2cc(Cl)cc(Br)c2)c(C)cc1N=CN(C)C(C)C [compound 328] | 2.70 | 6.81 |  |  |
| CCN(C)C=Nc1cc(C)c(CCc2ccccc2F)cc1C [compound 345] |  |  | 2.45 |  |
| Cc1cc(Oc2cc(F)cc(C(F)(F)F)c2)c(C)cc1N=CN1CCCCC1 [compound 373] | 2.29 |  |  |  |
| Cc1cc(-c2ccc(Cl)cc2C)c(C)cc1N=CN(C)C [compound 393] | 2.24 | 5.62 |  |  |
| CCN(C)C=Nc1cc(C)c(-c2ccc(Cl)c(C)c2)cc1C [compound 398] | 2.27 | 5.59 |  |  |
| Cc1cc(Oc2ccc(Cl)c(C(C)C)c2)c(C)cc1N=CN(C)C(C)C [compound 401] |  | 7.36 |  |  |
| Cc1cc(Oc2ccc(Cl)c(C(C)C)c2)c(Cl)cc1N=CN(C)C1CC1 [compound 402] |  | 6.60 | 2.96 |  |
| Cc1cc(Oc2cccc(C(C)(C)C)c2)c(C)cc1N=CN(C)C(C)C [compound 440] | 2.96 |  | 2.72 |  |
| Cc1cc(-c2ccc(C(C)(C)C)cc2)c(C)cc1N=CN(C)C [compound 445] | 2.71 | 5.74 |  |  |
| CCN(C)C=Nc1cc(C)c(-c2ccc(C(C)(C)C)cc2)cc1C [compound 446] | 2.69 | 6.30 |  |  |
| CCN(C)C=Nc1cc(C)c(Oc2cccc(C(C)(CC)OC)c2)cc1C (stereo not shown) [compound 502] | 2.30 |  |  |  |
| CCN(C)C=Nc1cc(C)c(Oc2nc(C(C)C)ns2)cc1C [compound 547] | 1.74 | 4.33 |  |  |
| CCN(C)C=Nc1cc(C)c(Oc2nc(C(C)(C)C)c(Cl)s2)cc1C [compound 559] | 2.76 |  |  |  |
| CCN(C)C=Nc1cc(Cl)c(Oc2cc(Cl)cc(C(F)(F)F)c2)cc1C [compound 565] | 2.64 |  |  |  |
| Cc1cc(Oc2cc(Cl)cc(C(F)(F)F)c2)c(Cl)cc1N=CN1CCCCC1 [compound 568] | 2.86 |  |  |  |
| CCN(C)C=Nc1cc(Cl)c(Oc2ccc(Cl)c(C(C)C)c2)cc1C [compound 570] |  | 6.37 | 2.95 |  |

| Structure (SMILES) | log p acidic | log p neutral | log p HCO2H | log p H3PO4 |
| --- | --- | --- | --- | --- |
| Cc1cc(Oc2ccc(Cl)c(C(C)C)c2)c(Cl)cc1N=CN(C)C(C)C [compound 572] |  | 6.70 | 2.87 |  |
| CCCN(C)C=Nc1cc(Cl)c(Oc2ccc(Cl)c(C(C)(C)C)c2)cc1C [compound 578] | 3.06 |  |  |  |
| CCC(C)N(C)C=Nc1cc(Cl)c(Oc2ccc(Cl)c(C(C)(C)C)c2)cc1C (stereo not shown) [compound 579] | 3.19 | 7.36 | 3.19 |  |
| CCc1cc(Oc2cc(C)c(N=CN(C)CC)cc2Cl)ccc1Cl [compound 583] |  | 6.09 | 2.78 |  |
| CCc1cc(Oc2cc(C)c(N=CN3CCCCC3)cc2Cl)ccc1Cl [compound 587] |  | 6.73 | 2.74 |  |
| CCCN(C)C=Nc1cc(Cl)c(Oc2ccc(Br)c(C(C)C)c2)cc1C [compound 590] | 2.93 | 7.01 |  |  |
| CCN(C)C=Nc1cc(Cl)c(Oc2cc(C(C)(C)C)nn2C)cc1C [compound 596] | 1.84 | 4.41 | 1.84 |  |
| CCCN(C)C=Nc1cc(Cl)c(Oc2cc(C(C)(C)C)nn2C)cc1C [compound 597] | 1.90 | 5.09 |  |  |
| Cc1cc(Oc2cc(C(C)(C)C)nn2C)c(Cl)cc1N=CN1CCCCC1 [compound 600] | 1.90 | 5.34 |  |  |
| CCN(C)C=Nc1cc(Cl)c(Oc2cc(C(C)C)nn2C)cc1C [compound 602] | 1.65 | 4.04 |  |  |
| CCCN(C)C=Nc1cc(Cl)c(Oc2cc(C(C)C)nn2C)cc1C [compound 603] | 1.78 | 4.52 |  |  |
| Cc1cc(Oc2nc(C(C)(C)C)ns2)c(Cl)cc1N=CN1CCCCC1 [compound 610] | 2.21 |  | 2.21 |  |
| CCN(C)C=Nc1cc(Cl)c(Oc2nc(C3(Cl)CC3)ns2)cc1C [compound 612] | 1.72 |  |  |  |
| Cc1cc(Oc2nc(C3(Cl)CC3)ns2)c(Cl)cc1N=CN1CCCCC1 [compound 614] | 1.98 |  |  |  |
| CCN(C)C=Nc1cc(Cl)c(Oc2ncnc(Oc3ccc(Cl)cc3)c2F)cc1C [compound 620] |  |  | 2.20 |  |
| CCN(C)C=Nc1cc(F)c(-c2ccc(Cl)c(C(F)(F)F)c2)cc1C [compound 656] | 2.37 |  |  |  |
| Cc1cc(-c2ccc(Cl)cc2)c(F)cc1N=CN(C)C(C)C [compound 665] |  |  |  | 2.22 |
| CCN(C)C=Nc1cc(F)c(-c2ccc(OC(C)(C)C)cc2)cc1C [compound 673] | 2.23 |  |  |  |
| CCN(C)C=Nc1cc(Br)c(Oc2ccc(Cl)c(C(C)(C)C)c2)cc1C [compound 697] | 2.67 |  |  |  |
| CCN(C)C=Nc1cc(OC)c(Oc2ccc(Cl)c(C(F)(F)F)c2)cc1C [compound 721] | 2.21 |  |  |  |

Next, values leading:

| log p acidic | log p neutral | log p HCO2H | log p H3PO4 | Structure (SMILES) |
| --- | --- | --- | --- | --- |
| 2.38 |  |  |  | CCN(C)C=Nc1cc(C)c(Oc2ccc(Cl)c(C(F)(F)F)c2)cc1C [compound 34] |
|  | 6.36 | 2.59 |  | Cc1cc(Oc2ccc(Cl)c(C(F)(F)F)c2)c(C)cc1N=CN1CCCCC1 [compound 36] |
| 2.69 | 5.96 |  |  | CCN(C)C=Nc1cc(C)c(Oc2ccc(Cl)c(C(C)(C)C)c2)cc1C [compound 50] |
| 2.05 | 4.53 |  |  | CCN(C)C=Nc1cc(C)c(Oc2cccc(-c3cccnc3Cl)c2)cc1C [compound 130] |
| 1.92 | 5.35 | 2.14 |  | Cc1cc(Oc2ccc(C#N)c(C(F)(F)F)c2)c(C)cc1N=CN1CCCCC1 [compound 228] |
|  |  | 2.21 |  | CCN(C)C=Nc1cc(C)c(C=Cc2ccccc2C)cc1C [compound 270] |
|  |  | 2.06 |  | CCN(C)C=Nc1cc(C)c(C=Cc2ccc(OC)cc2)cc1C [compound 286] |
| 2.93 | 7.01 |  |  | CCCN(C)C=Nc1cc(C)c(Oc2ccc(Br)c(C(C)C)c2)cc1C [compound 356] |
|  |  | 2.37 |  | Cc1cc(Oc2ccc(F)c(C(F)(F)F)c2)c(C)cc1N=CN(C)C [compound 365] |
| 2.31 | 5.54 |  |  | CCN(C)C=Nc1cc(C)c(Oc2cc(F)cc(C(F)(F)F)c2)cc1C [compound 371] |
|  | 6.70 | 3.02 |  | CCN(C)C=Nc1cc(Cl)c(Oc2ccc(Cl)c(C(C)(C)C)c2)cc1C [compound 388] |
| 2.18 |  |  |  | CCN(C)C=Nc1cc(C)c(Oc2cc(Cl)cc(C(C)C)n2)cc1C [compound 407] |
| 2.38 |  |  |  | CCN(C)C=Nc1cc(C)c(Oc2ccc3ccccc3c2)cc1C [compound 538] |
|  |  |  | 1.99 | CCN(C)C=Nc1cc(C)c(OCc2sc(Cl)nc2Cl)cc1C [compound 555] |
| 2.51 |  |  |  | Cc1cc(Oc2cc(Cl)cc(C(F)(F)F)c2)c(Cl)cc1N=CN(C)C [compound 564] |
| 2.83 |  |  |  | CCCN(C)C=Nc1cc(Cl)c(Oc2cc(Cl)cc(C(F)(F)F)c2)cc1C [compound 566] |

| log p acidic | log p neutral | log p HCO2H | log p H3PO4 | Structure (SMILES) |
| --- | --- | --- | --- | --- |
| 2.66 |  |  |  | Cc1cc(Oc2cc(Cl)cc(C(F)(F)F)c2)c(Cl)cc1N=CN1CCCC1 [compound 567] |
|  | 6.79 | 3.03 |  | CCCN(C)C=Nc1cc(Cl)c(Oc2ccc(Cl)c(C(C)C)c2)cc1C [compound 571] |
| 2.90 | 7.14 | 2.90 |  | CCC(C)N(C)C=Nc1cc(Cl)c(Oc2ccc(Cl)c(C(C)C)c2)cc1C (stereo not shown) [compound 573] |
|  | 6.94 | 3.24 |  | Cc1cc(Oc2ccc(Cl)c(C(C)(C)C)c2)c(Cl)cc1N=CN(C)C1CC1 [compound 577] |
|  | 6.54 | 2.84 |  | CCCN(C)C=Nc1cc(Cl)c(Oc2ccc(Cl)c(CC)c2)cc1C [compound 584] |
|  | 6.34 | 2.89 |  | CCc1cc(Oc2cc(C)c(N=CN(C)C3CC3)cc2Cl)ccc1Cl [compound 585] |
|  | 6.58 | 2.84 |  | CCN(C)C=Nc1cc(Cl)c(Oc2ccc(Br)c(C(C)C)c2)cc1C [compound 589] |
| 3.21 | 6.92 |  |  | Cc1cc(Oc2ccc(Br)c(C(C)C)c2)c(Cl)cc1N=CN(C)C(C)C [compound 591] |
| 1.79 | 4.75 |  |  | Cc1cc(Oc2cc(C(C)C)nn2C)c(Cl)cc1N=CN1CCCCC1C (stereo not shown) [compound 606] |
| 2.01 | 5.31 | 2.01 |  | CCN(C)C=Nc1cc(Cl)c(Oc2nc(C(C)(C)C)ns2)cc1C [compound 608] |
|  |  | 2.41 |  | Cc1cc(Oc2ncnc(Oc3ccc(Cl)cc3)c2F)c(Cl)cc1N=CN1CCCCC1 [compound 622] |
|  |  |  | 2.04 | Cc1cc(-c2ccc(Cl)cc2)c(F)cc1N=CN(C)C [compound 663] |
|  |  |  | 2.13 | CCN(C)C=Nc1cc(F)c(-c2ccc(Cl)cc2)cc1C [compound 664] |
| 2.38 |  |  |  | CCN(C)C=Nc1cc(F)c(-c2ccc(C(C)(C)C)cc2)cc1C [compound 669] |
| 1.32 |  |  |  | CCN(C)C=Nc1cc(F)c(-c2nnc(C3CC3)s2)cc1C [compound 681] |

Source: patent US20100113276A1, “USE OF N2-PHENYLAMIDINES AS HERBICIDES” (BAYER CROPSCIENCE AG, priority 2007, published 2010)
